What all share (experiment): inhibition of tumour cell growth, NCI panel, 48 h
The test system of assay [1] is UACC-62 melanoma.
The subject of assay [2] is HOP-92 NSCLC.
Assay [3] relates to IGROV1 ovarian.
Assay [4] has as its system LOX IMVI melanoma.
Assay [5] concerns SK-OV-3 ovarian.
Assay [6] deals with K-562 leukemia.
Assay [7] deals with OVCAR-5 ovarian.
Assay [8] relates to NCI-H23 lung.
Assay [9] concerns SK-MEL-2 melanoma.
Assay [10] deals with TK-10 renal.

Experimental findings from PubChem BioAssay (NCI) are described below.

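Grown in 96-well plates, cells were treated for 48 hours with each compound at five concentrations. Insufficient inhibition: endpoint recorded as highest concentration tested. The concentration for 50% growth inhibition is given as GI50. TGI is the concentration that stops growth completely.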

As for `CCOC(=O)c1c(CN2CCN(C)CC2)nc2ccc(Cl)cc2c1-c1ccccc1`, the GI50 in [1] is 2350 nM; in assay [2] it was 6640 nM; in assay [3] it was 7140 nM; in assay [4], 4520 nM; in assay [5], 12.8 µM; in [6] it was 1860 nM. Also, the GI50 was 10800 nM in assay [7], 14500 nM in assay [8], 12900 nM in assay [9] and 5.11 µM in [10]. Also, the TGI came to 7.76 µM in [1]; 22.3 µM in [2]; 19.9 µM in assay [3]; 16.1 µM in assay [4]; 25.8 µM in assay [5]; 4.66 µM in assay [6]. For the same compound, the TGI in assay [7] was found to be 25 µM; in [8], 30.1 µM; in assay [9], 26.2 µM; in [10], 13.6 µM.
For `COc1ccc(-c2c(N)noc2-c2cc(OC)c3c(c2)OCCO3)cc1`, the GI50 is less than 10 nM in assay [1]; 120 nM in [2]; 17.7 nM in assay [3]; 45.1 nM in assay [4]; less than 0.0121 µM in [5]; less than 10 nM in [6]. Further, the GI50 in [7] is 54.2 nM; in assay [8], less than 14 nM; in [9], less than 10 nM; in [10] it was 0.562 µM. Besides, the TGI in assay [1] was 28.2 µM; in [2] it was more than 40 µM; in [3], more than 73.3 µM; in assay [4] it was 24 µM; in [5], 1.01 µM; in assay [6] it was more than 100 µM. Besides, the figures for the TGI in assay [7], in assay [9] and in assay [10] were more than 100 µM, 67.5 µM and more than 56.6 µM, respectively.
As for `C[C@@H]1CCc2ncc(F)cc2[C@H]2CCCN2c2ccn3ncc(c3n2)C(=O)N1`, the GI50 was 69500 nM in [1]; 47800 nM in assay [2]; 34600 nM in [3]; 33100 nM in [4]; 91.7 µM in assay [5]; 29800 nM in assay [6]. Besides, the GI50 is more than 100000 nM in [7], more than 100000 nM in [8], more than 100000 nM in [9] and 81.7 µM in assay [10]. Also, the TGI in assay [1], in assay [2], in assay [3], in [4], in [5] and in assay [6] was more than 100 µM each time. Besides, the TGI in assay [7], in assay [8], in assay [9] and in [10] was more than 100 µM in each case.
For the compound `NC(=O)/C(=C/n1cnc(-c2cc(C(F)(F)F)cc(C(F)(F)F)c2)n1)c1cncnc1`, the GI50 was 630 nM in [1]; 159 nM in assay [2]; 696 nM in assay [3]; 303 nM in [4]; 1.57 µM in assay [5]; 144 nM in assay [6]. For the same compound, the GI50 in [7] was 447 nM; in [8], 307 nM; in assay [9], 353 nM; in assay [10], 0.986 µM. For the same compound, the TGI in assay [1] was determined as 5.37 µM; in assay [2], 8.23 µM; in assay [3], 14.7 µM; in assay [4], 4.36 µM; in assay [5] it was 43.1 µM; in [6], 38.7 µM. Also, the TGI in [7] worked out at 16.2 µM; in assay [8], 9.18 µM; in assay [9], 5.75 µM; in [10] it was 13.5 µM.
In the case of `Cc1ccc(S(=O)C(C)C(Cl)c2ccccc2)cc1` (centres undefined), the TGI in [1], in assay [2], in [3], in [4], in [5] and in assay [6] was more than 100 µM in each case. The TGI in [7], in [8], in [9] and in assay [10] was more than 100 µM in each case.
On to `COc1ccc(Br)c(C(=O)N2CCc3ccccc32)c1N`, for which the TGI in assay [1] was more than 100 µM; in [2], more than 100 µM; in assay [3], more than 100 µM; in assay [4], more than 100 µM; in assay [5], 80.2 µM; in assay [6] it was more than 100 µM. In addition, the TGI in [7] was more than 100 µM; in [8] it was more than 100 µM; in assay [9], 84.5 µM; in assay [10], more than 100 µM.
As to `COc1ccc(C2=Nn3c(nnc3-n3nc(C)cc3C)SC2)cc1`, the GI50 in [1] is 46.2 nM; in [2], 24.5 nM; in [3] it was 107 nM; in assay [4], 69.4 nM; in [5] it was 0.0908 µM; in [6], 35.1 nM. The GI50 in assay [7] is 340 nM; in assay [8], 180 nM; in assay [9], 59.9 nM; in assay [10] it was 0.227 µM. Besides, the TGI is more than 100 µM in assay [1]; 0.836 µM in [2]; more than 100 µM in assay [3]; more than 100 µM in assay [4]; more than 100 µM in [5]; more than 100 µM in [6]. Further, the TGI in [7], in [8], in assay [9] and in [10] was more than 100 µM each time.
For the compound `C#C[C@]1(O)CC[C@H]2[C@@H]3CC=C4c5nc(N)sc5CC[C@]4(C)[C@H]3CC[C@@]21C`, the GI50 in assay [1] was 2050 nM; in [2], 3700 nM; in [3], 4830 nM; in [4] it was 1920 nM; in assay [5], 3.5 µM; in assay [6], 2630 nM. Also, the GI50 is 11800 nM in [7], 4380 nM in assay [8], 2720 nM in assay [9] and 11.3 µM in assay [10]. Besides, the TGI in assay [1] was determined as 5.2 µM; in [2] it was 19.5 µM; in [3], 25.9 µM; in assay [4], 4.04 µM; in [5], 10.5 µM; in [6], 74.5 µM. Also, the TGI in assay [7] stood at 36.9 µM; in [8], 24.3 µM; in [9] it was 7.57 µM; in [10], 39.4 µM.
